Counter-ions that a name gives are not always drawn.
Columns and labels:
Format in all cases: physicochemical
[1] = Determination of the solubility of dasatinib salts (shake flask 37° C., HPLC); conditions: 6 hour shaking, 18 hour sedimentation
Experimental: Considering the above mentioned facts our solubility measurements were carried out on three different pH values (pH 1, pH 4.5 and pH 6.8).
Determination of the Solubility of Dasatinib Salts (Measurement Conditions)
Preparation of Sample Mixture:
• 100 mg of dasatinib salt are weighed in a 20 ml Erlenmeyer flask whereupon 10 ml of medium are added and it is shaked for 6 hours at a temperature of 37° C. on 100 rpm. After sedimentation for 18 hours at a temperature of 37° C. the settled solution is filtered through a sieve with 0.45 μm pores and the solution is diluted up to 20 ml with medium.

[2] = Storage stability test: quantity of impurities by HPLC and change thereof; conditions: for stability in the storage tests (in words): storage tests carried out under various conditions, thermal stress and forced stability tests
Description: In course of the thermal stress test and the forced stability test the decompositions in a pharmaceutical composition occurring during storage are constructed essentially in an accelerated manner. […] The advantageous properties of the new dasatinib salts of the present invention are significant from the point of view of the formulation of pharmaceutical compositions, the storage and the minimization of the harmful effects exerted in the human body.
The stability of the new dasatinib salts of the present invention were subjected to detailed tests.
Our results regarding the quantity of the impurities and change thereof are shown in the tables below (expressed in percentage).
Measuring conditions are the same as the determination of purity profile below.
Determination of the Impurities of Dasatinib Salts by HPLC (Measurement Conditions)

[3] = Water adsorption, DVS (dynamic vapor sorption) analysis; conditions: after drying
Description: As it is disclosed in WO2007/035874 paragraph [0096] dasatinib mono HCl includes a cavity or channel, which may be partially or fully occupied by solvent or a mixture of solvent. […] Further salts disclosed in the prior art also contain solvent adsorbed on the surface or in the form of solvate. These forms are nor suitable for pharmaceutical application. […] Therefore we carried out our comparative experiments between dasatinib base monohydrate and the new salts of the present invention.

solubility ([1]; 0.1M HCl (pH 1))	solubility ([1]; pH = 4.5 phosphate buffer)	solubility ([1]; pH = 6.8 phosphate buffer)	Impurity Dasatinib N-oxyde (RT 12.2-12.4) ([2]; 3 week, 25° C./90% RH)	Impurity Deshydroxyethyl dasatinib (RT 11.0) ([2]; 3 week, 25° C./90% RH)	Impurity Ethylene-diamine intermedier (RT 9.0-9.3) ([2]; 3 week, 25° C./90% RH)	Impurity Summary (%) ([2]; 3 week, 25° C./90% RH)	Impurity Dasatinib N-oxyde (RT 12.2-12.4) ([2]; 3 week, 40° C./70% RH)	Impurity Deshydroxyethyl dasatinib (RT 11.0) ([2]; 3 week, 40° C./70% RH)	Impurity Ethylene-diamine intermedier (RT 9.0-9.3) ([2]; 3 week, 40° C./70% RH)	Impurity Summary (%) ([2]; 3 week, 40° C./70% RH)	Impurity Deshydroxyethyl dasatinib (RT 11.0) ([2]; 6 week, 25° C./90% RH)	Impurity Ethylene-diamine intermedier (RT 9.0-9.3) ([2]; 6 week, 25° C./90% RH)	Impurity Summary (%) ([2]; 6 week, 25° C./90% RH)	Impurity Dasatinib N-oxyde (RT 12.2-12.4) ([2]; 6 week, 40° C./70% RH)	Impurity Deshydroxyethyl dasatinib (RT 11.0) ([2]; 6 week, 40° C./70% RH)	Impurity Ethylene-diamine intermedier (RT 9.0-9.3) ([2]; 6 week, 40° C./70% RH)	Impurity Summary (%) ([2]; 6 week, 40° C./70% RH)	Impurity Deshydroxyethyl dasatinib (RT 11.0) ([2]; starting sample)	Impurity Summary (%) ([2]; starting sample)	SMILES	other results
5757 µg/mL	555 µg/mL	156 µg/mL	0.03%	0.12%	0.06%	0.43%	0.03%	0.12%	0.08%	0.43%	0.12%	0.03%	0.39%	0.02%	0.12%	0.03%	0.41%	0.12%	0.38%	Cc1nc(Nc2ncc(C(=O)Nc3c(C)cccc3Cl)s2)cc(N2CCN(CCO)CC2)n1 [Dasatinib monohydrate, N-(2-Chloro-6-methylphenyl)-2-[6-[4-(2-hydroxyethyl)piperazin-1-yl]-2-methylpyrimidin-4-ylamino]-1,3-thiazole-5-carboxamide, reference compound]	Impurity Dasatinib imp 2 (RT 5.2) ([2]; 3 week, 25° C./90% RH): 0.11%; Impurity Dasatinib imp 3 (RT 18.9) ([2]; 3 week, 25° C./90% RH): 0.04%; Impurity, unnamed, RT 20.3 ([2]; 3 week, 25° C./90% RH): 0.07%; Impurity Dasatinib imp 2 (RT 5.2) ([2]; 3 week, 40° C./70% RH): 0.10%; Impurity Dasatinib imp 3 (RT 18.9) ([2]; 3 week, 40° C./70% RH): 0.03%; Impurity, unnamed, RT 20.3 ([2]; 3 week, 40° C./70% RH): 0.07%; Impurity Dasatinib imp 2 (RT 5.2) ([2]; 6 week, 25° C./90% RH): 0.10%; Impurity Dasatinib imp 3 (RT 18.9) ([2]; 6 week, 25° C./90% RH): 0.04%; Impurity, unnamed, RT 19.6 ([2]; 6 week, 25° C./90% RH): 0.02%; Impurity, unnamed, RT 20.3 ([2]; 6 week, 25° C./90% RH): 0.08%; Impurity Dasatinib imp 2 (RT 5.2) ([2]; 6 week, 40° C./70% RH): 0.11%; Impurity Dasatinib imp 3 (RT 18.9) ([2]; 6 week, 40° C./70% RH): 0.04%; Impurity, unnamed, RT 19.6 ([2]; 6 week, 40° C./70% RH): 0.02%; Impurity, unnamed, RT 20.3 ([2]; 6 week, 40° C./70% RH): 0.07%; Impurity Dasatinib N-oxyde (RT 12.2-12.4) ([2]; starting sample): 0.02%; Impurity Dasatinib imp 2 (RT 5.2) ([2]; starting sample): 0.11%; Impurity Dasatinib imp 3 (RT 18.9) ([2]; starting sample): 0.04%; Impurity Ethylene-diamine intermedier (RT 9.0-9.3) ([2]; starting sample): 0.03%; Impurity, unnamed, RT 20.3 ([2]; starting sample): 0.08%; stability in the storage tests (in words) ([2]; listed as dasatinib base monohydrate): most stable and suitable form disclosed in the prior art
8862 µg/mL	4544 µg/mL		0.04%	0.04%	0.03%	0.11%		0.04%	0.03%	0.07%	0.04%	0.03%	0.07%	0.03%	0.04%	0.02%	0.09%	0.04%	0.07%	Cc1nc(Nc2ncc(C(=O)Nc3c(C)cccc3Cl)s2)cc(N2CCN(CCO)CC2)n1 [dasatinib cyclamic acid (1:1) salt Form II] [N-(2-Chloro-6-methylphenyl)-2-[6-[4-(2-hydroxyethyl)piperazin-1-yl]-2-methylpyrimidin-4-ylamino]-1,3-thiazole-5-carboxamide]	Impurity Ethylene-diamine intermedier (RT 9.0-9.3) ([2]; starting sample): 0.03%; stability in the storage tests (in words) [2]: particularly stable
8533 µg/mL	6194 µg/mL	5 µg/mL	0.03%	0.03%	0.02%	0.11%	0.03%	0.03%		0.09%	0.03%		0.06%	0.03%	0.03%		0.06%	0.03%	0.09%	Cc1nc(Nc2ncc(C(=O)Nc3c(C)cccc3Cl)s2)cc(N2CCN(CCO)CC2)n1 [dasatinib cyclamic acid (1:1) salt Form I] [N-(2-Chloro-6-methylphenyl)-2-[6-[4-(2-hydroxyethyl)piperazin-1-yl]-2-methylpyrimidin-4-ylamino]-1,3-thiazole-5-carboxamide]	Impurity, unnamed, RT 15.5 ([2]; 3 week, 25° C./90% RH): 0.03%; Impurity, unnamed, RT 15.5 ([2]; 3 week, 40° C./70% RH): 0.03%; Impurity Dasatinib N-oxyde (RT 12.2-12.4) ([2]; 6 week, 25° C./90% RH): 0.03%; Impurity Dasatinib N-oxyde (RT 12.2-12.4) ([2]; starting sample): 0.03%; Impurity, unnamed, RT 15.5 ([2]; starting sample): 0.03%; stability in the storage tests (in words) [2]: particularly stable
																				Cc1nc(Nc2ncc(C(=O)Nc3c(C)cccc3Cl)s2)cc(N2CCN(CCO)CC2)n1 [dasatinib diHCl salt, N-(2-Chloro-6-methylphenyl)-2-[6-[4-(2-hydroxyethyl)piperazin-1-yl]-2-methylpyrimidin-4-ylamino]-1,3-thiazole-5-carboxamide]	water adsorption property (in words) [3]: tends to adsorb water
7994 µg/mL	1056 µg/mL																			Cc1nc(Nc2ncc(C(=O)Nc3c(C)cccc3Cl)s2)cc(N2CCN(CCO)CC2)n1 [dasatinib hydrogen bromide (1:2) salt, N-(2-Chloro-6-methylphenyl)-2-[6-[4-(2-hydroxyethyl)piperazin-1-yl]-2-methylpyrimidin-4-ylamino]-1,3-thiazole-5-carboxamide]	

Reference: patent US10023566B2, “Dasatinib salts” (EGIS GYOGYSZERGYAR ZRT, priority 2014, dated 2018)
